These are literature values, as cited in US10532971B2, “4-hydroxybutyric acid analogs” (Concert Pharmaceuticals, Inc., priority 2009, dated 2020).

The conditions of data set [1]: in humans.
The conditions of data set [2]: clinical trials; dose-dependent adverse effects.

Counter-ions that a name gives are not always drawn.

For `O=C(O)CCCO` [4-hydroxybutyric acid, 4-Hydroxybutyric acid], in data set [1], the half life is 30 to 60 min. Turning to `O=C(O)CCCO` [sodium oxybate, sodium salt of 4-hydroxybutyric acid], the “rates of headache, nausea, and dizziness” value in data set [2] is on record as 17-22%.
